Test systems include ACHN renal; IGROV1 ovarian; M14 melanoma; UO-31 renal; BT-549 breast; NCI-H226 lung; SK-OV-3 ovarian; OVCAR-3 ovarian; RPMI-8226 leukemia; U251 CNS.
Holding throughout (assay): growth of human tumour cells (NCI), 48 h

Each structure is given as a SMILES string. Values joined by “and” are separate entries in the source; they are usually repeats but may differ in a detail not shown here. Equal entries are not always repeated.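 Five compound concentrations were applied to cells in 96-well plates for 48 hours; endpoints were derived by simple linear interpolation of the resulting dose-response curve. GI50: concentration for 50% inhibition of growth. At the TGI there is no net growth.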

Among the data in PubChem BioAssay (NCI) are GI50 and TGI values, retold here.

For `COc1ccc(-c2nn(-c3cccc(Cl)c3)cc2-c2cc(-c3cccs3)[nH]c(=S)n2)cc1`, the GI50 in the assay on ACHN renal was 4.05 µM; in the assay with IGROV1 ovarian it was 3.61 µM; in the assay on M14 melanoma it was 2.81 µM; with UO-31 renal, 2.82 µM; in the assay with BT-549 breast, 3.18 µM; with NCI-H226 lung it was 3.16 µM. The GI50 in the assay with SK-OV-3 ovarian is 5.91 µM; with OVCAR-3 ovarian, 3.04 µM; with RPMI-8226 leukemia, 2.42 µM; in the assay with U251 CNS, 2.6 µM. Further, the TGI in the assay on ACHN renal was above 100 µM; in the assay on IGROV1 ovarian it was 15.3 µM; in the assay on M14 melanoma, 14 µM; with UO-31 renal it was 26.5 µM; with BT-549 breast it was 15.9 µM; in the assay on NCI-H226 lung, 54.4 µM. The TGI in the assay with SK-OV-3 ovarian turned out to be 36.8 µM; in the assay with OVCAR-3 ovarian, 9.42 µM; with RPMI-8226 leukemia, 10.9 µM; with U251 CNS it was 12.4 µM.

For `CCOC(=O)N1CCN(/[N+]([O-])=N/Oc2ccc([N+](=O)[O-])cc2[N+](=O)[O-])CC1`, the GI50 in the assay with ACHN renal was 0.479 µM; in the assay on IGROV1 ovarian, 9.04 µM; in the assay on M14 melanoma, 0.328 µM; with UO-31 renal, 10.6 µM; in the assay on BT-549 breast, 2.62 µM; in the assay with NCI-H226 lung, 3.77 µM. The GI50 was 5.61 µM in the assay with SK-OV-3 ovarian, 0.542 µM in the assay with OVCAR-3 ovarian, 0.34 µM in the assay with RPMI-8226 leukemia and 1.55 µM in the assay on U251 CNS. For the same compound, the TGI was 1.37 µM in the assay on ACHN renal; 30.2 µM with IGROV1 ovarian; 1.43 µM in the assay with M14 melanoma; 23.3 µM in the assay on UO-31 renal; 18.6 µM in the assay with BT-549 breast; 16.7 µM with NCI-H226 lung. In addition, the TGI with SK-OV-3 ovarian was 18.4 µM; with OVCAR-3 ovarian, 1.82 µM; in the assay on RPMI-8226 leukemia, 12.9 µM; in the assay on U251 CNS it was 21.5 µM.

Turning to `O=C1C(Cl)=C(Nc2cccc(F)c2)C(=O)N1Cc1ccc(Cl)cc1`, the GI50 is 2.54 µM with ACHN renal; 2.92 µM in the assay with IGROV1 ovarian; 1.2 µM with M14 melanoma; 3.69 µM with UO-31 renal; 0.841 µM in the assay with BT-549 breast; 0.188 µM in the assay on NCI-H226 lung. Also, the GI50 was 2.59 µM in the assay with SK-OV-3 ovarian, 1.19 µM with OVCAR-3 ovarian, 0.502 µM in the assay with RPMI-8226 leukemia and 0.337 µM with U251 CNS. The TGI was 15.2 µM in the assay with ACHN renal; 16.9 µM with IGROV1 ovarian; 4.35 µM in the assay on M14 melanoma; 35.9 µM with UO-31 renal; 13.4 µM in the assay on BT-549 breast; 0.852 µM in the assay with NCI-H226 lung. Moreover, the TGI in the assay with SK-OV-3 ovarian was 17.6 µM; in the assay with OVCAR-3 ovarian it was 6.84 µM; in the assay with RPMI-8226 leukemia, 14.2 µM; with U251 CNS, above 32 µM.

For the compound `COc1cccc(N2CCN(CC(=O)N3CCN(c4nnc(-c5ccc(Cl)cc5)c(-c5ccc(Cl)cc5)n4)CC3)CC2)c1`, the GI50 with ACHN renal is 10.8 µM; in the assay on IGROV1 ovarian it was 11.1 µM; in the assay with M14 melanoma, 30.2 µM; in the assay on UO-31 renal it was 3.63 µM; in the assay with BT-549 breast, 12.9 µM; in the assay on NCI-H226 lung, 88.3 µM. The GI50 in the assay with SK-OV-3 ovarian was 22 µM; in the assay with OVCAR-3 ovarian it was 36.9 µM; in the assay on RPMI-8226 leukemia, 4.63 µM; with U251 CNS, 16.7 µM. Moreover, the TGI with ACHN renal was 32.1 µM; in the assay on IGROV1 ovarian, 84.7 µM; with M14 melanoma, above 100 µM; in the assay with UO-31 renal, above 100 µM; in the assay with BT-549 breast, above 100 µM; in the assay on NCI-H226 lung, above 100 µM. Also, the TGI with SK-OV-3 ovarian is 77.6 µM; in the assay on OVCAR-3 ovarian, above 100 µM; in the assay with RPMI-8226 leukemia, above 100 µM; in the assay on U251 CNS, above 100 µM.

Turning to `COc1ccc2[nH]cc(-c3ccc(-c4c[nH]c5ccc(OC)cc45)s3)c2c1`, the GI50 was 4.14 µM with ACHN renal; 8.72 µM with IGROV1 ovarian; 6.36 µM in the assay on M14 melanoma; 2.9 µM in the assay with UO-31 renal; 7.44 µM in the assay on BT-549 breast; 8.95 µM with NCI-H226 lung. For the same compound, the GI50 in the assay on SK-OV-3 ovarian was 14.7 µM; with OVCAR-3 ovarian it was 10.7 µM; in the assay with RPMI-8226 leukemia, 2.83 µM; in the assay with U251 CNS it was 3.68 µM. Besides, the TGI in the assay on ACHN renal is 15.9 µM; in the assay with IGROV1 ovarian, 51 µM; with M14 melanoma, 18.4 µM; with UO-31 renal it was 13.5 µM; in the assay with BT-549 breast it was 20.9 µM; in the assay on NCI-H226 lung it was above 42.9 µM. Further, the TGI in the assay with SK-OV-3 ovarian is 39.8 µM; in the assay on OVCAR-3 ovarian, 27.5 µM; in the assay on RPMI-8226 leukemia, 21 µM; with U251 CNS, 12.6 µM.

As to `C[C@]12CC[C@@H]3c4ccc(OC(=O)N(CCCl)CCCl)cc4CC[C@H]3[C@@H]1CC[C@@H]2O`, the GI50 is 3.71 µM with ACHN renal; 4.7 µM in the assay on IGROV1 ovarian; 1.61 µM in the assay with M14 melanoma; 3.12 µM in the assay on UO-31 renal; 4.64 µM in the assay with BT-549 breast; 3.98 µM in the assay on NCI-H226 lung. For the same compound, the GI50 was 4.71 µM in the assay with SK-OV-3 ovarian, 0.691 µM with OVCAR-3 ovarian, 1.62 µM in the assay on RPMI-8226 leukemia and 2.58 µM in the assay on U251 CNS. Besides, the TGI in the assay on ACHN renal is above 68.5 µM; with IGROV1 ovarian, 33.4 µM and 3.65 µM; in the assay with M14 melanoma it was 11.5 µM; with UO-31 renal it was 14 µM; in the assay on BT-549 breast, 17.1 µM; in the assay on NCI-H226 lung, 22.3 µM. The TGI is 36.8 µM and 7.95 µM in the assay on SK-OV-3 ovarian; 4.56 µM in the assay with OVCAR-3 ovarian; 5.42 µM with RPMI-8226 leukemia; 13.8 µM and 26.9 µM in the assay on U251 CNS.

Take `CCN(Cc1cc(Nc2nc(C)cn3c(-c4cn[nH]c4)cnc23)sn1)C(C)(C)CO`: the GI50 with ACHN renal was 0.0306 µM; in the assay with IGROV1 ovarian, 0.0257 µM; in the assay on M14 melanoma it was 0.0421 µM; in the assay on UO-31 renal, 0.0428 µM; in the assay with BT-549 breast, 0.0458 µM; in the assay with NCI-H226 lung it was below 0.0106 µM. For the same compound, the GI50 is 0.0241 µM in the assay with SK-OV-3 ovarian, 0.0481 µM in the assay with OVCAR-3 ovarian, 2.41 µM in the assay on RPMI-8226 leukemia and 0.0289 µM with U251 CNS. In addition, the TGI is 11.9 µM in the assay with ACHN renal; 12.9 µM in the assay on IGROV1 ovarian; 2.84 µM in the assay with M14 melanoma; 10.1 µM in the assay with UO-31 renal; 1.18 µM with BT-549 breast; 0.513 µM with NCI-H226 lung. Besides, the TGI in the assay with SK-OV-3 ovarian is 3.38 µM; in the assay with OVCAR-3 ovarian it was 2.68 µM; in the assay with RPMI-8226 leukemia, 10.1 µM; with U251 CNS, 2.21 µM.
